How the values were obtained:
Experiment in all cases: CTG-3D luminescence at 96 h relative to day-0 seeding control (ratio to day 0); higher = more growth / less cytotoxicity; PDxO 3D drug screen, 96 h, CTG-3D normalised to day-0 seeding control.
HCI-012 = tested on: HCI-012 (organoid from a breast cancer xenograft)
HCI-016 = tested on: HCI-016 (organoid from a triple-negative breast cancer xenograft)
HCI-027 = tested on: HCI-027 (organoid from a triple-negative breast cancer xenograft)

## C[C@]12CC[C@@H]3c4ccc(O)cc4C[C@@H](CCCCCCCCC[S+]([O-])CCCC(F)(F)C(F)(F)F)[C@H]3[C@@H]1CC[C@@H]2O (some centres undefined) [fulvestrant]
HCI-012; 10 µM, days in culture: 162
  CTG-3D luminescence at 96 h: 3.17
HCI-012; 10 µM, days in culture: 201
  CTG-3D luminescence at 96 h: 1.48
HCI-012; 100 µM, days in culture: 143
  CTG-3D luminescence at 96 h: 2.25
HCI-012; 100 µM, days in culture: 162
  CTG-3D luminescence at 96 h: 2.71
HCI-012; 100 µM, days in culture: 201
  CTG-3D luminescence at 96 h: 2.1
HCI-012; 625 fM, days in culture: 143
  CTG-3D luminescence at 96 h: 1.92
HCI-012; 625 fM, days in culture: 162
  CTG-3D luminescence at 96 h: 2.92
HCI-012; 625 fM, days in culture: 201
  CTG-3D luminescence at 96 h: 1.53
HCI-016; 12.5 pM, days in culture: 153
  CTG-3D luminescence at 96 h: 2.93
HCI-016; 12.5 pM, days in culture: 172
  CTG-3D luminescence at 96 h: 2.46
HCI-016; 12.5 pM, days in culture: 190
  CTG-3D luminescence at 96 h: 1.79
HCI-016; 12.5 pM, days in culture: 199
  CTG-3D luminescence at 96 h: 1.92
HCI-016; 0.00025 µM, days in culture: 153
  CTG-3D luminescence at 96 h: 2.2
HCI-016; 0.00025 µM, days in culture: 172
  CTG-3D luminescence at 96 h: 1.77
HCI-016; 0.00025 µM, days in culture: 190
  CTG-3D luminescence at 96 h: 1.54
HCI-016; 0.00025 µM, days in culture: 199
  CTG-3D luminescence at 96 h: 2.05
HCI-016; 0.005 µM, days in culture: 153
  CTG-3D luminescence at 96 h: 2.24
HCI-016; 0.005 µM, days in culture: 172
  CTG-3D luminescence at 96 h: 1.97
HCI-016; 0.005 µM, days in culture: 190
  CTG-3D luminescence at 96 h: 1.85
HCI-016; 0.005 µM, days in culture: 199
  CTG-3D luminescence at 96 h: 1.9
HCI-016; 0.1 µM, days in culture: 153
  CTG-3D luminescence at 96 h: 2.05
HCI-016; 0.1 µM, days in culture: 172
  CTG-3D luminescence at 96 h: 1.54
HCI-016; 0.1 µM, days in culture: 190
  CTG-3D luminescence at 96 h: 1.28
HCI-016; 0.1 µM, days in culture: 199
  CTG-3D luminescence at 96 h: 1.67
HCI-016; 1 µM, days in culture: 153
  CTG-3D luminescence at 96 h: 2.08
HCI-016; 1 µM, days in culture: 172
  CTG-3D luminescence at 96 h: 1.72
HCI-016; 1 µM, days in culture: 190
  CTG-3D luminescence at 96 h: 1.3
HCI-016; 1 µM, days in culture: 199
  CTG-3D luminescence at 96 h: 2.19
HCI-016; 10 µM, days in culture: 153
  CTG-3D luminescence at 96 h: 2.62
HCI-016; 10 µM, days in culture: 172
  CTG-3D luminescence at 96 h: 1.14
HCI-016; 10 µM, days in culture: 190
  CTG-3D luminescence at 96 h: 0.96
HCI-016; 10 µM, days in culture: 199
  CTG-3D luminescence at 96 h: 1.62
HCI-016; 100 µM, days in culture: 153
  CTG-3D luminescence at 96 h: 1.86
HCI-016; 100 µM, days in culture: 172
  CTG-3D luminescence at 96 h: 1.63
HCI-016; 100 µM, days in culture: 190
  CTG-3D luminescence at 96 h: 1.07
HCI-016; 100 µM, days in culture: 199
  CTG-3D luminescence at 96 h: 1.44
HCI-016; 625 fM, days in culture: 153
  CTG-3D luminescence at 96 h: 2.61
HCI-016; 625 fM, days in culture: 172
  CTG-3D luminescence at 96 h: 1.6
HCI-016; 625 fM, days in culture: 190
  CTG-3D luminescence at 96 h: 1.14
HCI-016; 625 fM, days in culture: 199
  CTG-3D luminescence at 96 h: 2.07
HCI-027; 12.5 pM, days in culture: 176
  CTG-3D luminescence at 96 h: 2.05
HCI-027; 12.5 pM, days in culture: 194
  CTG-3D luminescence at 96 h: 1.74
HCI-027; 12.5 pM, days in culture: 201
  CTG-3D luminescence at 96 h: 2.63
HCI-027; 0.00025 µM, days in culture: 176
  CTG-3D luminescence at 96 h: 1.67
HCI-027; 0.00025 µM, days in culture: 194
  CTG-3D luminescence at 96 h: 1.82
HCI-027; 0.00025 µM, days in culture: 201
  CTG-3D luminescence at 96 h: 2.77
HCI-027; 0.005 µM, days in culture: 176
  CTG-3D luminescence at 96 h: 2.89
HCI-027; 0.005 µM, days in culture: 194
  CTG-3D luminescence at 96 h: 1.53
HCI-027; 0.005 µM, days in culture: 201
  CTG-3D luminescence at 96 h: 2.87
HCI-027; 0.1 µM, days in culture: 176
  CTG-3D luminescence at 96 h: 2.3
HCI-027; 0.1 µM, days in culture: 194
  CTG-3D luminescence at 96 h: 1.78
HCI-027; 0.1 µM, days in culture: 201
  CTG-3D luminescence at 96 h: 2.64
HCI-027; 1 µM, days in culture: 176
  CTG-3D luminescence at 96 h: 2.57
HCI-027; 1 µM, days in culture: 194
  CTG-3D luminescence at 96 h: 2.32
HCI-027; 1 µM, days in culture: 201
  CTG-3D luminescence at 96 h: 2.56
HCI-027; 10 µM, days in culture: 176
  CTG-3D luminescence at 96 h: 1.77
HCI-027; 10 µM, days in culture: 194
  CTG-3D luminescence at 96 h: 2.05
HCI-027; 10 µM, days in culture: 201
  CTG-3D luminescence at 96 h: 2.01
HCI-027; 100 µM, days in culture: 176
  CTG-3D luminescence at 96 h: 2.18
HCI-027; 100 µM, days in culture: 194
  CTG-3D luminescence at 96 h: 2.15
HCI-027; 100 µM, days in culture: 201
  CTG-3D luminescence at 96 h: 1.85
HCI-027; 625 fM, days in culture: 176
  CTG-3D luminescence at 96 h: 2.36
HCI-027; 625 fM, days in culture: 194
  CTG-3D luminescence at 96 h: 1.71
HCI-027; 625 fM, days in culture: 201
  CTG-3D luminescence at 96 h: 2.4

Source: the supplement of paper PMC8882468
